Reference: patent US20250229272A1, “Headspace Eliminating Microtiter Plate Lid” (Agilent Technologies, Inc., priority 2022, published 2025)

test system: mitochondrial network; assay: MitoTracker imaging of the mitochondrial network in cells incubated with compounds (Cytation 5); format: cell-based; conditions: cells loaded with MitoTracker and hoechst; imaged while incubating with compounds; compared to the control; FIG. 15
Procedure: Cells were loaded with MitoTracker and hoechst as per manufactures instructions. Cells were washed with media then the media was replaced with media containing MitoXpress Xtra. Imaging was carried out as the plate was incubating with compounds using a Cytation 5 with a RFP LED/Filter set. Then, the lid of the present disclosure was placed onto the base of the plate assembly and MitoXpress Assay was run as normal.
The effects in structure are then reflected in the rates of oxygen consumption showing a direct correlation between structure and function. Different compounds lead to different effects. Some promote fusion, some inhibit fusion, some fission some limit fission. The novel insight with this method is to correlate changes in structure of the mitochondria to functional changes in respiration as shown in FIG. 16 in the same well for the first time.

Row | Compound | effects of compounds on the mitochondrial network
1 | CC[C@H]1/C=C/C=C/C[C@@H](C)[C@H](O)[C@@](C)(O)C(=O)[C@@H](C)[C@H](O)[C@@H](C)C(=O)[C@@H](C)[C@H](O)[C@@H](C)/C=C/C(=O)O[C@@H]2[C@H](C)[C@H](CC1)O[C@]1(CC[C@H](C)[C@H](C[C@@H](C)O)O1)[C@H]2C [Oligomycin] | cause the network to condense, and divide
2 | C=C(C)[C@H]1Cc2c(ccc3c2O[C@@H]2COc4cc(OC)c(OC)cc4[C@@H]2C3=O)O1 [Rotenone] | cause the network to condense, and divide
3 | Antimycin | cause the network to condense, and divide
